According to publication PMC8032764 (Scientific Reports, 2021):
Read-outs that look alike come from different tables or passages of the source.

Legend:
[1] = biological target: human GABAA α5β3γ2 (Homo sapiens, UniProt P18507+P31644); test: Two-electrode voltage clamp in Xenopus oocytes, current induced by EC10 of GABA; type: cell-based; set-up: expressed in transfected cells; host or cells: Xenopus laevis oocytes, cRNA injection
Experimental: Freshly prepared oocytes of maturation stage VI were bought from Ecocyte Bioscience (Castrop-Rauxel, Germany) and, after overnight delivery, plated into 96-well plates (Greiner no. 651101) for microinjection on a ROBOOCYTE R16 system (Multichannel Systems MCS GmbH, Reutlingen, Germany). Each oocyte was injected with roughly 50 nL of RNA solution. The solution for expressing receptors composed of the human α1, β2 and γ2 subunits contained 3 pg/nL of α1 and β2 RNA and 15 pg/nL of γ2 RNA. The solution for expressing human α2β3γ2 receptors contained 2.5 pg/nL of α2 and β3 RNA, 5 pg/nL of γ2 RNA and 10 pg/nL of GABARAP RNA. The solution for expressing human α3β3γ2 receptors contained 1.3 pg/nL of α3 and β3 RNA and 6.5 pg/nL of γ2 RNA. The solution for expressing human α5β3γ2 receptors contained 1.3 pg/nL of α5 and β3 RNA and 13 pg/nL of γ2 RNA. […] After the microinjection the oocytes were kept at 20 °C temperature until the electrophysiological experiment. Experiments were done 3 to 5 days later on the ROBOOCYTE instrument which employs the two-microelectrode voltage-clamp technique for membrane voltage control and current measurement. […] During current recording and compound testing the cell membrane was constantly clamped to − 80 mV. Current signals were recorded and stored on a PC-type computer using the ROBOOCYTE software.
(§1) During the microinjection and up to the electrophysiological experiment the oocytes were kept in a solution containing 88 mM NaCl, 1 mM KCl, 2.5 mM NaHCO3, 10 mM HEPES (AppliChem GmbH, Darmstadt, Germany), 0.82 MgSO4, 0.33 mM Ca(NO3)2, 0.33 mM CaCl2, 100 U/mL penicillin (GIBCO, ThermoFisher Scientific) and 100 µg/mL streptomycine (GIBCO, ThermoFisher Scientific). The pH was adjusted to 7.5. During the experiment the voltage-clamped oocyte was constantly superfused by a solution containing 90 mM NaCl, 1 mM KCl, 5 mM HEPES (AppliChem), 1 mM MgCl2 and 1 mM CaCl2 (pH 7.4). GABA and test compounds were added to this solution. GABA concentrations were chosen according to previously determined concentration–response relations for the different human GABAA receptor subunit combinations. Concentrations evoking approximately 10% of a maximal response were selected, i.e., 8 µM for α1β2γ2, 6 µM for α2β3γ2, 10 µM for α3β3γ2 and 5 µM for α5β3γ2. Solutions containing GABA or test compounds were freshly prepared at least every second day. […] Compounds were further diluted in DMSO and finally in extracellular saline to reach a DMSO concentration of 0.1%. The same amount of DMSO was added to the control solutions without test compounds.
During the experiment the solutions were fed into the well containing the voltage-clamped oocyte via Teflon tubings connected by electromagnetic valves which allowed rapid switching between different solutions (controlled by the ROBOCYTE software). Approximately 1–2 min after impaling an oocyte and switching to voltage-clamp mode GABA was applied for 90 s to record a control response. Thereafter the oocyte was washed with saline for 160 s followed by another 90 s GABA application. Then 30 s after the onset of the second GABA application the system switched to a solution containing GABA plus the test compound. Each oocyte was used for testing one concentration of a single test compound (for α5β3γ2: 1 nM: n = 8, 10 nM: n = 8, 100 nM: n = 7, 1000 nM: n = 7).
In this case each GABA application lasted 110 s and the rest period between the two GABA applications was 190 s long.
On each 96-well plate 3–6 oocytes were used for testing a known NAM at the BZD binding site, β-CCM (FG7106), as a positive control. […] Maximally effective concentrations of β-CCM were used for each subunit combination, i.e., 100 nM β-CCM for α1β2γ2, 300 nM for α2β3γ2 or α3β3γ2 and 1 µM for α5β3γ2.

[2] = test system: male Lister Hooded rats; test: Diazepam-induced spatial learning impairment in the Morris water maze; type: in vivo, rat; details: diazepam 6 mg/kg i.p.
Experimental: The current study used a modified version of the standard acquisition protocol, in which pre-trained rats had to learn to locate a new platform position during six trials on the test day, as described previously. Subjects were semi-randomly divided into treatment groups based on their performance on the last training day. A computer tracking system (HVS Image Ltd, UK) was used to analyse each rat’s swim path on-line.
Latency, pathlength and swim speed (Supplementary Fig. S2) were analysed with a one-factor ANOVA. For the probe trial, to determine whether each treatment group had learned the spatial position of the platform, within-subjects ANOVA was used to compare percent time spent in the platform quadrant with the left, right and opposite quadrants. All significant cases were followed by a post hoc Newman–Keuls test. In addition, a comparison between vehicle treated and diazepam-treated rats on the percent time spent in the platform quadrant was analysed using an unpaired t-test.

[3] = biological target: GABAA α3β3γ2; details: Table S4a, cited from earlier work
[4] = biological target: GABAA α5β3γ2; details: cited from earlier work
[5] = biological target: GABAA α1β3γ2; details: Table S4a, cited from earlier work
[6] = biological target: GABAA α2β3γ2; details: Table S4a, cited from earlier work
[7] = test system: T1, human GABAA α2β3γ2; test: Two-electrode voltage clamp in Xenopus oocytes, current induced by EC10 of GABA; type: cell-based; details: 300 nM β-CCM; not shown
T1 construct: expressed in transfected cells; host or cells: Xenopus laevis oocytes, cRNA injection
Experimental: Freshly prepared oocytes of maturation stage VI were bought from Ecocyte Bioscience (Castrop-Rauxel, Germany) and, after overnight delivery, plated into 96-well plates (Greiner no. 651101) for microinjection on a ROBOOCYTE R16 system (Multichannel Systems MCS GmbH, Reutlingen, Germany). Each oocyte was injected with roughly 50 nL of RNA solution. The solution for expressing receptors composed of the human α1, β2 and γ2 subunits contained 3 pg/nL of α1 and β2 RNA and 15 pg/nL of γ2 RNA. The solution for expressing human α2β3γ2 receptors contained 2.5 pg/nL of α2 and β3 RNA, 5 pg/nL of γ2 RNA and 10 pg/nL of GABARAP RNA. The solution for expressing human α3β3γ2 receptors contained 1.3 pg/nL of α3 and β3 RNA and 6.5 pg/nL of γ2 RNA. The solution for expressing human α5β3γ2 receptors contained 1.3 pg/nL of α5 and β3 RNA and 13 pg/nL of γ2 RNA. GABARAP was added to the α2β3γ2 subunit mixture since the expression of γ2 would be low otherwise, as indicated by a weak effect of β-CCM[60]. After the microinjection the oocytes were kept at 20 °C temperature until the electrophysiological experiment. Experiments were done 3 to 5 days later on the ROBOOCYTE instrument which employs the two-microelectrode voltage-clamp technique for membrane voltage control and current measurement. […] During current recording and compound testing the cell membrane was constantly clamped to − 80 mV. Current signals were recorded and stored on a PC-type computer using the ROBOOCYTE software.
as §1, with “compounds. […]” for “compounds.”

[8] = test system: male F-344 rats; test: Social approach avoidance test; details: positive control, 3 mg/kg p.o., 30 min prior to testing
Experimental: Experiments on social approach avoidance were performed as described previously by[41] and[14]. A tracking system (Ethovision, Noldus, The Netherlands) was used to analyse each rat’s pathway.

[9] = test system: Wistar rats; test: Pentylenetetrazole (PTZ) test; type: in vivo, rat; details: positive control, 10 mg/kg i.p. 30 min prior to PTZ, p < 0.05
Experimental: PTZ was prepared in 0.9% saline and was administered s.c. in a volume of 1 mL/kg. The positive control FG7142, a non-selective GABAA receptor NAM, was prepared in 0.3% Tween 80 v/v saline and was administered i.p. in a volume of 1 mL/kg. […] During this period the number of rats showing tonic convulsions was noted.
FG7142 was administered at 10 mg/kg 30 min prior to PTZ. The percent of rats in each dose group showing tonic convulsions was compared to the control group by the Pearson Chi-Square test.

Chain of human GABAA α5β3γ2 (P31644 32-462): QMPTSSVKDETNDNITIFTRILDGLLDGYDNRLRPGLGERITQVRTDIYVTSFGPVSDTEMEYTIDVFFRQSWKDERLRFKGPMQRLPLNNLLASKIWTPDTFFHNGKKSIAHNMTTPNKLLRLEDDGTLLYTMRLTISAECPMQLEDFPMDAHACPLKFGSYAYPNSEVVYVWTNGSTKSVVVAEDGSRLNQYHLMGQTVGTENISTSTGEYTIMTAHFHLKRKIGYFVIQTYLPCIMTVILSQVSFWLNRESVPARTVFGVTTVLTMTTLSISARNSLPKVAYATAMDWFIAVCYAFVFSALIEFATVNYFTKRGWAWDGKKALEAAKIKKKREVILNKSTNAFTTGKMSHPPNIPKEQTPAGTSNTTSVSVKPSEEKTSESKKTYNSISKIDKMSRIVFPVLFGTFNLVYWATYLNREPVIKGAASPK
Chain of human GABAA α5β3γ2 (P28472 26-473 partner): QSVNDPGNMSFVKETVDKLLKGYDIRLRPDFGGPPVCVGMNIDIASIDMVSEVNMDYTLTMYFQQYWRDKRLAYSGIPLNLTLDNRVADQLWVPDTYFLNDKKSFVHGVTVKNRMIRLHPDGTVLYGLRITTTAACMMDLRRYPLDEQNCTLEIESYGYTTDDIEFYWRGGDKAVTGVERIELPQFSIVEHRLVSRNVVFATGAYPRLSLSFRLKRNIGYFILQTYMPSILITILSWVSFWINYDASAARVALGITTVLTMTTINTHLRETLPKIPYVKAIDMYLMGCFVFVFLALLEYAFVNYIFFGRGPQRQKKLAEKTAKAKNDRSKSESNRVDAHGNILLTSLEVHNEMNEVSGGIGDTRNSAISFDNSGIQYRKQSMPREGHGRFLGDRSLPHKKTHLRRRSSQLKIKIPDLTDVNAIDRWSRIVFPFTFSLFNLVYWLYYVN
Chain of human GABAA α5β3γ2 (P18507 40-475): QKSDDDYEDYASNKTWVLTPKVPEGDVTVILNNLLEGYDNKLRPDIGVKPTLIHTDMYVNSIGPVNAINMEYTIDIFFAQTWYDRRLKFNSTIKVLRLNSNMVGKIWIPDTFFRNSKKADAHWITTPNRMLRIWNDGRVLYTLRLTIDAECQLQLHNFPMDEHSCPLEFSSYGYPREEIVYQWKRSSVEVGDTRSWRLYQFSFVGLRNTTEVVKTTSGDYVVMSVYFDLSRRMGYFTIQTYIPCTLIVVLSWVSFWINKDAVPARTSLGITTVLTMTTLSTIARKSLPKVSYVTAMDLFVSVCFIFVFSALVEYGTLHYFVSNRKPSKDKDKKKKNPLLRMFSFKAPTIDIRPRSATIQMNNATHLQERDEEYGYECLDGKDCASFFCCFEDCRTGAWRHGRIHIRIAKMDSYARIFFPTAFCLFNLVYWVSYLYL

With `CCOC(=O)c1ncn2c1CN(C)C(=O)c1cc(F)ccc1-2` [Flumazenil, reference compound] the “enhancement of the GABA-induced current” value ([1]; 30 and 1000 nM, concentration-dependent) was “up to 28%”.
With `CN1C(=O)CN=C(c2ccccc2)c2cc(Cl)ccc21` [Diazepam, reference compound] the “latency and pathlength to find the platform across six trials” value [2] was “significantly increased the latency and pathlength”, the swim speed [2] was “small but significant increase in swim speed” and the “probe trial, learning of the new platform position” value ([2]; 30 min before test) was “significantly disrupted learning of the new platform position”.
For `CCOC(=O)c1ncn2c1[C@@H]1CCCN1C(=O)c1cc(OC)ccc1-2` [L-655,708], the Ki ([3]; ref Atack et al., 2006) is listed as 31 nM, the Ki ([4]; Table S4a, ref Atack et al., 2006, read-out: Ki α5β3γ2) is listed as 1 nM and the Ki ([4]; discussion, no reference given, read-out: Ki at the GABAA-α5 receptor subtype) is listed as about 1 nM. The Ki ([5]; ref Atack et al., 2006) was 70 nM and the Ki ([6]; ref Atack et al., 2006) was 48 nM.
In the case of `COC(=O)c1cc2c(cn1)[nH]c1ccccc12` [β-CCM, methyl beta-carboline-3-carboxylate, reference compound], the “inhibition of GABA response” value [7] is reported as 42% and the “reduction of the GABA-evoked current” value ([1]; maximally effective concentration, 1 µM β-CCM, data not shown) is reported as 52%.
In the case of `COCc1ncn2c1CN(C)C(=O)c1cc(Cl)ccc1-2` [PWZ-029], the Ki ([3]; ref Savić et al., 2008) is listed as over 300 nM, the Ki ([4]; Table S4a, ref Savić et al., 2008, read-out: Ki α5β3γ2) is listed as 30 nM and the Ki ([5]; ref Savić et al., 2008) is listed as 920 nM. For the same compound, the Ki ([6]; ref Savić et al., 2008) was over 300 nM.
In the case of `CN1Cc2c(C(=O)OC(C)(C)C)ncn2-c2ccsc2C1=O` [Ro 19-4603, reference compound], the “time in the social compartment” value ([8]; p < 0.001) is reported as “significantly decreased the time in the social compartment” and the “time in the hidden area” value ([8]; p < 0.05) is reported as “increased the time in the hidden area”.
With `CNC(=O)c1cc2c(cn1)[nH]c1ccccc12` [FG7142, N-Methyl-9H-pyrido[5,4-b]indole-3-carboxamide, reference compound] the “number of rats showing tonic convulsions” value [9] was “increased the number of rats showing tonic convulsions”.
